# Data reported in US20260069584A1, “METHODS OF TREATING CHRONIC MYELOID LEUKEMIA USING THE TYROSINE KINASE INHIBITOR VODOBATINIB” (Sun Pharma Advanced Research Company Ltd., priority 2022, published 2026).
# System: CP CML
# Experiment: Part B: disease response in CP CML subjects
# Assay type: in vivo, human
# Conditions: for Complete Molecular Response, Best Response / Complete cytogenetic response, Best Response / Cytogenetic response: Minimal response, Best Response / Cytogenetic response: Minor response, Best Response / Cytogenetic response: No response, Best Response / Hematological response: CHR, Best Response / Hematological response: No response, Best Response / Major cytogenetic response, Best Response / Major molecular response, Best Response / Molecular response: No response, Best Response / Partial cytogenetic response, Best Response: number of patients
# Description: This was a Phase I/2, open-label, single-agent, multicenter, multi-dose, dose-escalation study in subjects with Philadelphia chromosome-positive Ph+ CML (CP CML, AP CML and BP CML) and Ph+ ALL. The primary objectives of this study were to determine the maximum tolerated dose (MTD; or recommended Phase 2 dose [RP2D]) of the compound of Formula I when administered orally and to evaluate its safety.
# In this study, the dose-escalation cohort started with an accelerated titration study design (ATD) and shifted to a 3±3 design when subjects in the preceding ATD cohort experienced either grade 2 or higher adverse events (AEs) or dose-limiting toxicity (DLT) during Cycle 1 that was not clearly and incontrovertibly related to the underlying disease or concomitant medications. The DLT period consisted of 28 days (Cycle 1). Subjects experiencing DLTs were managed with dose delays and/or discontinuation and continued in the study until disease progression. Decisions to advance to a succeeding dose level occurred after the evaluation of safety and tolerability data for a given dose level.
# Accordingly, the eligible subjects were treated in 4-week cycles of once daily self-administration of the compound of Formula I. The administration was after an overnight fast, or after maintaining approximately 2 hours of fasting before and after the dosing in all cycles.
# For the cohorts, where the 3±3 design applies, 3 subjects were enrolled initially. If 2 of these subjects experienced a Grade 2 or more toxicity (that was not clearly and incontrovertibly related to the underlying disease or concomitant medications), subsequent cohorts were escalated according to smaller increments. Further, if there were no DLTs in the first 3 subjects, dose escalation to the next higher dose level was allowed to proceed. If 1 of the 3 subjects experienced a DLT, that dose level was expanded to 6 subjects (3 additional subjects were enrolled). If 2 subjects at a given dose level experienced a DLT, the MTD was considered to have been exceeded. The next lower dose level was expanded to 6 subjects, or if 6 subjects had already been enrolled and no more than 1 of the 6 subjects experienced a DLT, then this lower dose level was considered the MTD. Additional subjects were enrolled in dose escalation cohorts for further assessment of safety and efficacy of the compound of Formula 1 at doses that were tolerated (i.e., doses that have <2 DLTs in 6 enrolled subjects or <1 DLT in 3 enrolled subjects). Thus 204 mg was arrived at as MTD. A subject experiencing a DLT was allowed to continue therapy with a reduced dose. Subjects who experienced a DLT and recovered were treated at the next lower dose level until disease progression or other events requiring further dose reduction existed. For cohorts at Dose Level 2 or higher, a further dose reduction (i.e., up to 2 levels lower than their originally assigned dose) was implemented in the case of a further DLT or other non-DLT events requiring a dose reduction, if and when the event leading to dose reduction returned to Grade 1 or lower in severity. The reduced dose was re-escalated to the original or higher dose (i.e., the dose for which safety had been established in the dose escalation cohort) considering subject safety and response to the compound of Formula I. The subject was discontinued from treatment using the compound of Formula I, if dose reduction below 48 mg was required.
# The study was conducted over a period of 60 months (5 years) which was divided in 28-days cycle. In the first two cycles, the dose administration was started on day 1 and the subject's assessments were performed on day 1, day 2, day 3, day 8, day 15 and day 22. From Cycle 3 onwards, the assessments were performed every 3 months (i.e., on day 28 of Cycle 3, followed by day 28 of Cycle 6 which was further followed by day 28 of Cycle 9). […]
# [1] = 16 CP CML patients with prior ponatinib
# [2] = prior ponatinib, 48 mg (N = 1) ESC
# [3] = prior ponatinib, 66 mg (N = 2) ESC
# [4] = prior ponatinib, 90 mg (N = 2) ESC
# [5] = prior ponatinib, 126 mg (N = 1) ESC
# [6] = prior ponatinib, 174 mg (N = 5) ESC
# [7] = prior ponatinib, 204 mg (N = 3) ESC
# [8] = prior ponatinib, 240 mg (N = 2) ESC
compound,measurement,setting,value
"Cc1ccc(C(=O)NNC(=O)c2c(C)cccc2Cl)cc1C#Cc1cnc2ccccc2c1 [compound of Formula I, N′-(2-chloro-6-methylbenzoyl)-4-methyl-3-[2-(3-quinolyl)ethynyl]-benzohydrazide]",Best Hematologic Response: No Response,204 mg (N = 6) ESC,0
same,Best Molecular Response: Complete Response,204 mg (N = 6) ESC,1(16.7)
same,Best Molecular Response: Major Response,204 mg (N = 6) ESC,3(50.0)
same,Best Molecular Response: No Response,204 mg (N = 6) ESC,3(50.0)
same,Best Cytogenetic Response: Complete Response,240 mg (N = 3) ESC,3(100)
same,Best Cytogenetic Response: Major Cytogenetic Response,240 mg (N = 3) ESC,3(100)
same,Best Cytogenetic Response: Minimal Response,240 mg (N = 3) ESC,0
same,Best Cytogenetic Response: Minor Response,240 mg (N = 3) ESC,0
same,Best Cytogenetic Response: No Response,240 mg (N = 3) ESC,0
same,Best Cytogenetic Response: Partial Response,240 mg (N = 3) ESC,0
same,Best Hematologic Response: Complete Response,240 mg (N = 3) ESC,2(66.7)
same,Best Hematologic Response: Major Hematologic Response,240 mg (N = 3) ESC,2(66.7)
same,Best Hematologic Response: No Evidence of Leukemia,240 mg (N = 3) ESC,0
same,Best Hematologic Response: No Response,240 mg (N = 3) ESC,0
same,Best Molecular Response: Complete Response,240 mg (N = 3) ESC,1(33.3)
same,Best Molecular Response: Major Response,240 mg (N = 3) ESC,3(100)
same,Best Molecular Response: No Response,240 mg (N = 3) ESC,0
same,MMR achieved,"8 patients out of 17, prior ponatinib",47%
same,"Major Cytogenetic Response (MCyR, both PCyR+ CCyR)",11 of 16 CP CML patients with prior ponatinib,68.8%
same,Achieved MCyR,[1],6 patients
same,Maintained MCyR,[1],5 patients
same,"Complete Molecular Response, Best Response",ASC (N = 3),0
same,"Complete cytogenetic response, Best Response",ASC (N = 3),1
same,"Cytogenetic response: Minimal response, Best Response",ASC (N = 3),0
same,"Cytogenetic response: Minor response, Best Response",ASC (N = 3),1
same,"Cytogenetic response: No response, Best Response",ASC (N = 3),1
same,"Hematological response: CHR, Best Response",ASC (N = 3),3
same,"Hematological response: No response, Best Response",ASC (N = 3),0
same,"Major cytogenetic response, Best Response",ASC (N = 3),1
same,"Major molecular response, Best Response",ASC (N = 3),0
same,"Molecular response: No response, Best Response",ASC (N = 3),3
same,"Partial cytogenetic response, Best Response",ASC (N = 3),0
same,"Complete Molecular Response, Best Response",PON (N = 15),4
same,"Complete cytogenetic response, Best Response",PON (N = 15),7
same,"Cytogenetic response: Minimal response, Best Response",PON (N = 15),1
same,"Cytogenetic response: Minor response, Best Response",PON (N = 15),1
same,"Cytogenetic response: No response, Best Response",PON (N = 15),2
same,"Hematological response: CHR, Best Response",PON (N = 15),12
same,"Hematological response: No response, Best Response",PON (N = 15),3
same,"Major cytogenetic response, Best Response",PON (N = 15),10
same,"Major molecular response, Best Response",PON (N = 15),8
same,"Molecular response: No response, Best Response",PON (N = 15),7
same,"Partial cytogenetic response, Best Response",PON (N = 15),3
same,Best Cytogenetic Response: Complete Response,Total (N = 30) ESC,17(56.7)
same,Best Cytogenetic Response: Major Cytogenetic Response,Total (N = 30) ESC,20(66.7)
same,Best Cytogenetic Response: Minimal Response,Total (N = 30) ESC,4(13.3)
same,Best Cytogenetic Response: Minor Response,Total (N = 30) ESC,1(3.3)
same,Best Cytogenetic Response: No Response,Total (N = 30) ESC,3(10.0)
same,Best Cytogenetic Response: Partial Response,Total (N = 30) ESC,3(10.0)
same,Best Hematologic Response: Complete Response,Total (N = 30) ESC,24(80.0)
same,Best Hematologic Response: Major Hematologic Response,Total (N = 30) ESC,24(80.0)
same,Best Hematologic Response: No Evidence of Leukemia,Total (N = 30) ESC,0
same,Best Hematologic Response: No Response,Total (N = 30) ESC,4(13.3)
same,Best Molecular Response: Complete Response,Total (N = 30) ESC,7(23.3)
same,Best Molecular Response: Major Response,Total (N = 30) ESC,14(46.7)
same,Best Molecular Response: No Response,Total (N = 30) ESC,14(46.7)
same,CCyR as best response,more than 3 prior TKIs including ponatinib,46.7%
same,CCyR as best response,more than 3 prior TKIs including ponatinib and asciminib,33.3%
same,Major cytogenetic response as best response,ponatinib group,66.7%
same,Major cytogenetic response as best response,ponatinib plus asciminib group,33.3%
same,Achieved MCyR,[2],0
same,Achieved MMR,[2],1(100)
same,MCyR,[2],1(100)
same,Maintained MCyR,[2],1(100)
same,Maintained MMR,[2],0
same,Achieved MCyR,[3],1(50.0)
same,Achieved MMR,[3],0
same,MCyR,[3],1(50.0)
same,Maintained MCyR,[3],0
same,Maintained MMR,[3],0
same,Achieved MCyR,[4],1(50.0)
same,Achieved MMR,[4],1(50.0)
same,MCyR,[4],1(50.0)
same,Maintained MCyR,[4],0
same,Maintained MMR,[4],0
same,Achieved MCyR,[5],0
same,Achieved MMR,[5],0
same,MCyR,[5],0
same,Maintained MCyR,[5],0
same,Maintained MMR,[5],0
same,Achieved MCyR,[6],1(20.0)
same,Achieved MMR,[6],3(60.0)
same,MCyR,[6],3(60.0)
same,Maintained MCyR,[6],2(40.0)
same,Maintained MMR,[6],0
same,Achieved MCyR,[7],2(66.7)
same,Achieved MMR,[7],1(33.3)
same,MCyR,[7],3(100)
same,Maintained MCyR,[7],1(33.3)
same,Maintained MMR,[7],0
same,Achieved MCyR,[8],1(50.0)
same,Achieved MMR,[8],2(100)
same,MCyR,[8],2(100)
same,Maintained MCyR,[8],1(50.0)
same,Maintained MMR,[8],0
same,Achieved MCyR,"prior ponatinib, Total ESC",6(37.5)
same,Achieved MMR,"prior ponatinib, Total ESC",8(50.0)
same,MCyR,"prior ponatinib, Total ESC",11(68.8)
same,Maintained MCyR,"prior ponatinib, Total ESC",5(31.3)
same,Maintained MMR,"prior ponatinib, Total ESC",0
